The text below walks through data of patent US5869464A, “2'-Deoxy-5-fluorouridine derivatives, a process for their preparation, antitumor agents containing same and methods for using said agents” (Taiho Pharmaceutical Co. Ltd., priority 1993, dated 1999).

A short description of series [1]: Inhibition of body weight gain in Yoshida sarcoma-bearing rats (Pharmacological Test Example 1). Also noted: species or system rat (male Donryu/CRJ strain). The note with it: rat, in vivo.
Series [2] has as its system Yoshida sarcoma cells. Put plainly: Antitumor effect on subcutaneously transplanted Yoshida sarcoma (Pharmacological Test Example 1). The format is in vivo, rat (male Donryu/CRJ strain). The note with it: oral; for ED50: Rattus norvegicus, YOSHIDA, once a day for 7 consecutive days from 24 h after transplantation, 8th day, read-out: ED50 (effective dose for achieving 50% inhibition of tumor growth); for T.I. (therapeutic index = BWC50/ED50): once a day for 7 consecutive days. As for the experimental part: The compounds of the present invention were tested for antitumor effect.
Rat-transplantable tumor, Yoshida sarcoma cells (2×10^4) were subcutaneously transplanted in the back of male Donryu/CRJ strain rats (weighing 150 to 165 g). The test compounds were suspended in a 0.5% aqueous solution of hydroxypropylmethyl cellulose. Twenty-four hours after the transplantation, each suspension was orally administered to rats (7 rats in each group) in an amount of 1.0 ml per 100 g of rats' body weight once a day for 7 consecutive days. Only a solution of hydroxypropylmethyl cellulose containing no test compound was orally administered to the control group in an amount of 1.0 ml/100 g rats' body weight once a day for 7 consecutive days starting 24 hours after the transplantation.
The rats were sacrificed on the 8th day after the transplantation and their tumors were extirpated. The tumors were weighed to calculate an average tumor weight at each dose. The results were compared between the treated group and the control group. An effective dose (ED50) for achieving 50% inhibition of tumor growth was determined from the dose-tumor reduction curve. A dose of 50% inhibition of body weight gain (BWC50)was determined from the dose-body weight change curve. The therapeutic index (T.I.=BWC50 /ED50) was also determined.

For series [3] the following is noted: under the influence of pyrimidine nucleoside phosphorylase; cited from earlier work.
The next series concerns tumor cells. The note with it: in vitro tests; cited from earlier work.
Series [4] relates to Yoshida sarcoma cells. In words: Antitumor effect on subcutaneously transplanted Yoshida sarcoma (Pharmacological Test Example 1). Type of series: in vivo, rat (male Donryu/CRJ strain). The settings on record: for ED50: Rattus norvegicus, YOSHIDA, iv, read-out: ED50 (effective dose for achieving 50% inhibition of tumor growth).
Series [5] relates to human stomach cancer strain, H-81. In words: Tumor growth inhibition, nude rat-transplantable human stomach cancer strain H-81 (Pharmacological Test Example 2(b)). Type of series: in vivo, human tumor in male F344/N Jcl-rnu nude rat. The note with it: once a day for 14 consecutive days. An excerpt: (§1) (a) A tumor piece (about 2 mm^3) of nude rat-transplantable human kidney cancer strain, JRC-11, was subcutaneously transplanted in the armpit of each male F344/N Jcl-rnu nude rat. The treatment of rats (7 rats in each group) started when the rats' tumors grew to an estimated volume of 250 mm^3 as calculated by an equation
wherein L is the length of the tumor and W is the width of the tumor, each being measured by calipers. The treated group (rats to be treated with the test compounds) and the control group were tested under equal conditions concerning the mean value of tumor volume and standard deviation. The test compounds were suspended in a 0.5% aqueous solution of hydroxypropylmethyl cellulose. […]
(§2) A ratio of tumor growth of each rat was calculated from two tumor volumes on the first day of administration and on the day following the last administration. A mean ratio of tumor growth of the group (T) or the control group (C) was calculated from said ratio. Then, a tumor growth inhibition ratio (%) was calculated by the following equation: […]
(b) The same experiment as in (a) was conducted except that a nude rat-transplantable human stomach cancer strain, H-81, was used in place of the nude rat-transplantable human kidney cancer strain, JRC-11. A tumor growth inhibition ratio was calculated.

Series [6] deals with human kidney cancer strain, JRC-11. In words: Tumor growth inhibition, nude rat-transplantable human kidney cancer strain JRC-11 (Pharmacological Test Example 2(a)). The format is in vivo, human tumor in male F344/N Jcl-rnu nude rat. The note with it: once a day for 14 consecutive days.
Description: as §1
wherein L is the length of the tumor and W is the width of the tumor, each being measured by calipers. The treated group (rats to be treated with the test compounds) and the control group were tested under equal conditions concerning the mean value of tumor volume and standard deviation. The test compounds were suspended in a 0.5% aqueous solution of hydroxypropylmethyl cellulose. Each suspension was orally administered to rats in an amount of 1.0 ml per 100 g of rats' body weight once a day for 14 consecutive days. Only a solution of hydroxypropylmethyl cellulose containing no test compound was orally administered to the control group in an amount of 1.0 ml per 100 g rats' body weight once a day for 14 consecutive days.
as §2

The mark [7] stands for this setting: CVI: continuous intravenous drip injection.

Like-named read-outs stand apart in the source and are kept apart here.

Molecule `CCCOc1nc(=O)n([C@H]2C[C@H](OCc3ccc(Cl)cc3F)[C@@H](CO)O2)cc1F` [Compound 3] showed a TD50 in series [1] (po) of 14 mg/kg. In the series on Yoshida sarcoma cells [2], the ED50 – broadly, the dose at which the effect has come halfway, by size or by number of responders – amounted to 4 mg/kg and the “T.I. (therapeutic index = BWC50/ED50)” value was determined as 3.5.
In the same order, the values of `CCCOc1nc(=O)n([C@H]2C[C@H](OCc3ccc(F)cc3F)[C@@H](CO)O2)cc1F` [Compound 7] are 18 mg/kg, 7.5 mg/kg and 2.4.
Consider `O=c1[nH]c(=O)n([C@H]2C[C@H](O)[C@@H](CO)O2)cc1F` [FdUrd, 2'-deoxy-5-fluorouridine], for which, in series [3], the “therapeutic effect in vivo” value is listed as “can not produce a satisfactory therapeutic effect”. Also, in the series on tumor cells, the “inhibition of the growth of tumor cells” value is listed as “significantly inhibits the growth of tumor cells”. Further, the TD50 came out at 0.7 mg/kg in series [1] (iv, CVI: continuous intravenous drip injection, read-out: BWC50 (dose of 50% inhibition of body weight gain)) and 60 mg/kg in series [1] (iv, iv: intravenous injection, read-out: BWC50 (dose of 50% inhibition of body weight gain)). In addition, the “T.I. (therapeutic index = BWC50/ED50)” value came out at 0.88 in the series with Yoshida sarcoma cells [4] (setting [7]) and 1.36 in the series with Yoshida sarcoma cells [4] (iv: intravenous injection). The ED50 in the series on Yoshida sarcoma cells [4] (setting [7]) worked out at 0.8 mg/kg; in the series on Yoshida sarcoma cells [4] (iv: intravenous injection), 44 mg/kg.
In turn, `CCCOc1nc(=O)n([C@H]2C[C@H](OCc3ccc(Cl)cc3Cl)[C@@H](CO)O2)cc1F` [Compound 12] showed a TD50 in series [1] (po) of 16 mg/kg. In addition, in the series with Yoshida sarcoma cells [2], the ED50 stood at 3 mg/kg and the “T.I. (therapeutic index = BWC50/ED50)” value stood at 5.3.
As for `CCOc1nc(=O)n([C@H]2C[C@H](OCc3ccc(Cl)cc3F)[C@@H](CO)O2)cc1F` [Compound 13, 3'-O-(4-chloro-2-fluorobenzyl)-2'-deoxy-4-O-ethyl-5-fluorouridine], the “Inhibition ratio (%) (tumor growth)” value in series [5] (3.75 mg/kg oral) is 74%; in series [5] (7.5 mg/kg oral) it was 79%; in series [6] (3.75 mg/kg oral), 67%; in series [6] (7.5 mg/kg oral) it was 73%.
Regarding `CCCOc1nc(=O)n([C@H]2C[C@H](O)[C@@H](CO)O2)cc1F` [Comparative Compound 2, 2'-deoxy-4-O-n-propyl-5-fluorouridine], the TD50 in series [1] (po) is 37 mg/kg. In the series with Yoshida sarcoma cells [2], the ED50 amounted to 34 mg/kg and the “T.I. (therapeutic index = BWC50/ED50)” value was determined as 1.1.
`CCCCC(=O)OC[C@H]1O[C@@H](n2cc(F)c(OCc3ccc(F)cc3)nc2=O)C[C@@H]1OC(=O)CCCC` [Comparative Compound 3, 2'-deoxy-4-O-(4-fluorobenzyl)-3',5'-di-O-n-pentanoyl-5-fluorouridine]: the TD50 in series [1] (po) was 40 mg/kg. In the series on Yoshida sarcoma cells [2], the ED50 was greater than 40 mg/kg and the “T.I. (therapeutic index = BWC50/ED50)” value was less than 1.0.
`O=c1[nH]c(=O)n([C@H]2C[C@H](OCc3ccc(Cl)cc3F)[C@@H](CO)O2)cc1F` [Comparative Compound 1, 3'-O-(4-chloro-2-fluorobenzyl)-2'-deoxy-5-fluorouridine]: the TD50 in series [1] (po) was found to be 8.5 mg/kg. In the series on Yoshida sarcoma cells [2], the ED50 came out at 7.5 mg/kg and the “T.I. (therapeutic index = BWC50/ED50)” value is given as 1.1.
